From the supplement of paper PMC10307832

What was measured:
Test in all cases: relative viability (nuclei count vs DMSO), 5 days (fraction); higher = more cells survive
[1] = compound: C1COCCN1C2=CC(=O)C3=C(O2)C(=CC=C3)C4=CC=CC5=C4SC6=CC=CC=C56
Outline: (§1)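 Cells of lung cancer lines were placed in 1536-well plates and kept overnight at 37 °C. Pinning then delivered five library-drug doses (not always all listed), spaced by √10, onto plates anchored with vehicle, and the cells were left 5 days without changing medium. One step fixed, permeabilised and stained them with Hoechst, and MetaXpress counted nuclei in 4× images. Viability, as a median over plates, is treated-well nuclei divided by vehicle-well nuclei, with acceptance only at control CV below 25% and at least one doubling.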

[2] = compound: CCN(CC)CCCCNc1ncc2cc(-c3cc(OC)cc(OC)c3)c(NC(=O)NC(C)(C)C)nc2n1
Outline: as §1

PRIMA-1MET = compound: COCC1(CO)C(=O)C2CCN1CC2 [PRIMA-1MET]
Outline: as §1

Zibotentan = compound: COc1nc(C)cnc1NS(=O)(=O)c1cccnc1-c1ccc(-c2nnco2)cc1 [Zibotentan]
Outline: as §1

[3] = compound: O=c1cc(-c2cccc3c2Sc2ccccc2S3)oc(N2CCOCC2)c1
Outline: as §1

Cell Line | relative viability ([1]; 0.01 µM) | relative viability ([1]; 0.03162 µM) | relative viability ([1]; 0.1 µM) | relative viability ([1]; 0.3162 µM) | relative viability ([1]; 1 µM) | relative viability ([2]; 0.01 µM) | relative viability ([2]; 0.03162 µM) | relative viability ([2]; 0.1 µM) | relative viability ([2]; 0.3162 µM) | relative viability ([2]; 1 µM) | relative viability (PRIMA-1MET; 0.2 µM) | relative viability (PRIMA-1MET; 0.6325 µM) | relative viability (PRIMA-1MET; 2 µM) | relative viability (PRIMA-1MET; 6.325 µM) | relative viability (PRIMA-1MET; 20 µM) | relative viability (Zibotentan; 0.08 µM) | relative viability (Zibotentan; 0.253 µM) | relative viability (Zibotentan; 0.8 µM) | relative viability (Zibotentan; 2.53 µM) | relative viability ([3]; 0.08 µM) | relative viability ([3]; 0.253 µM) | relative viability ([3]; 0.8 µM) | relative viability ([3]; 2.53 µM) | relative viability ([3]; 8 µM)
201T | 0.988 | 0.989 | 1.01 | 0.954 | 0.953 | 0.976 | 0.972 | 1.01 | 0.954 | 0.898 | 1.07 | 0.93 | 0.758 | 1.01 | 0.987 | 1.01 | 0.968 | 0.986 | 0.978 | 0.952 | 0.971 | 0.844 | 0.944 | 1.03
A549 | 1.01 | 0.96 | 1.01 | 0.973 | 0.914 | 0.927 | 0.97 | 1.15 | 1.06 | 0.876 | 1.1 | 0.893 | 0.944 | 1.01 | 0.891 | 1.04 | 0.938 | 0.931 | 1 | 0.946 | 1.22 | 1.1 | 0.991 | 1.07
A-427 | 0.967 | 1.05 | 0.923 | 0.979 | 1 | 1.01 | 0.896 | 1.07 | 1.12 | 0.844 | 1.01 | 0.836 | 0.831 | 1.02 | 0.855 | 1.08 | 0.972 | 0.942 | 1.01 | 0.958 | 1.03 | 1.09 | 0.814 | 1.06
ABC-1 | 0.917 | 1.16 | 1.03 | 1.04 | 0.954 | 0.957 | 0.838 | 1.25 | 1.07 | 0.869 | 0.953 | 0.621 | 0.903 | 0.829 | 0.247 | 1.06 | 0.753 | 0.96 | 1 | 0.922 | 1.09 | 0.808 | 0.976 | 1.12
BEN | 0.919 | 1.04 | 0.931 | 1.04 | 0.897 | 1 | 0.89 | 1 | 1.01 | 0.816 | 0.982 | 0.825 | – | 1.06 | 1.01 | 1.06 | 0.782 | 0.936 | 0.941 | 0.876 | 0.931 | 0.946 | 0.996 | 1.18
CAL-12T | 0.924 | 0.991 | 1.03 | 1.05 | 0.854 | 0.901 | 1.03 | 1.04 | 1.04 | 0.974 | 0.946 | 0.924 | 1.02 | 0.934 | 0.352 | 0.965 | 0.918 | 0.942 | 1.03 | 0.94 | 1.06 | 0.952 | 0.955 | 0.883
COR-L23 | 1 | 1 | 1.01 | 1.02 | 1.06 | 1.1 | 1.14 | 1.33 | 1.16 | 1.11 | 1.33 | 0.936 | 0.94 | 1.11 | 0.0329 | 1.06 | 1.06 | 1.01 | 1.03 | 1.03 | 1.37 | 1.12 | 1.03 | 1.14
COR-L 105 | 0.88 | 0.926 | 0.943 | 0.899 | 0.914 | 0.838 | 0.914 | 1.1 | 1.06 | 0.835 | 1 | 0.899 | 0.818 | 0.835 | 0.175 | 1.01 | 0.861 | 0.959 | 1.02 | 0.811 | 1.04 | 0.871 | 0.835 | 0.978
Calu-6 | 1.05 | 1.06 | 1.08 | 1.01 | 1.05 | 0.989 | 1.1 | 1.11 | 1.11 | 1.02 | 1.06 | 0.977 | 0.97 | 0.948 | 0.812 | 1.04 | 0.932 | 0.979 | 1 | 1 | 1.1 | 1.05 | 0.955 | 0.924
ChaGo-K-1 | 1.03 | 0.956 | 0.95 | 1.04 | 0.954 | 1.02 | 0.967 | 1.11 | 1.02 | 0.941 | 0.994 | 0.814 | 0.98 | 1 | 0.884 | 1.04 | 0.983 | 0.743 | 0.943 | 0.975 | 0.953 | 1.03 | 0.935 | 1.08
EBC-1 | 1.04 | 0.965 | 0.928 | 0.932 | 0.917 | 1.11 | 0.988 | 1.06 | 1.24 | 0.953 | 1.09 | 0.998 | 0.933 | 0.987 | 0.811 | 0.944 | 0.991 | 1.06 | 1.09 | 1.02 | 1.07 | 0.98 | 0.929 | 0.779
EKVX | 0.964 | 0.966 | 1.04 | 0.926 | 0.924 | 0.888 | 0.877 | 1.02 | 1.13 | 0.981 | 1.17 | 0.905 | 0.731 | 0.975 | 0.885 | 0.957 | 0.944 | 0.963 | 1.03 | 0.974 | 0.997 | 0.903 | 0.888 | 1.03
EMC-BAC-2 | 0.94 | 1.03 | 1.07 | 1.09 | 0.655 | – | 0.967 | 1.13 | 1.13 | 0.994 | 1.31 | 0.916 | 0.738 | 1.05 | 0.971 | 1.41 | – | 1.08 | 1.02 | 0.927 | 1.12 | 0.999 | 1.03 | 1.18
EPLC-272H | 1.01 | 0.947 | 0.676 | 1.04 | 0.87 | 1.04 | 0.686 | 1.03 | 1.05 | 0.703 | 0.862 | 0.839 | 0.943 | 1.03 | 0.831 | 0.945 | 1.07 | 0.863 | 0.911 | 0.936 | 0.939 | 0.959 | 0.907 | 1.18
H3255 | 0.926 | 0.96 | 0.95 | 1.05 | 0.812 | 0.999 | 0.938 | 1.07 | 1.12 | 0.978 | 0.992 | 0.89 | 0.938 | 0.989 | 0.952 | 0.981 | 1.03 | 1.06 | 0.938 | 0.929 | 0.917 | 0.994 | 0.994 | 1.19
HARA | 0.859 | 0.893 | 0.958 | 0.981 | 0.865 | 1.14 | 1.06 | 1.04 | 0.993 | 0.636 | 1.04 | 0.796 | – | 0.977 | 0.997 | 1.04 | 0.86 | 0.951 | 1 | 0.903 | 1.12 | 0.94 | 0.767 | 0.843
HCC-15 | 0.963 | 1.14 | 1.08 | 0.968 | 1.03 | 1.08 | 1.03 | 1.08 | 1.2 | 0.957 | 0.967 | 0.856 | 0.936 | 1.01 | 0.874 | 0.995 | 0.994 | 1.09 | 1.01 | 0.954 | 1.13 | 1.06 | 0.94 | 1.06
HCC-44 | 0.981 | 1.04 | 1.01 | 0.979 | 0.933 | 0.982 | 0.976 | 1.07 | 1.05 | 1.06 | 1.05 | 0.921 | 1.04 | 0.922 | 0.974 | 1.07 | 0.935 | 0.978 | 0.986 | 0.956 | 1.04 | 0.919 | 0.905 | 1.04
HCC-78 | 1.07 | 0.94 | 0.856 | 0.886 | 0.774 | 0.879 | 0.906 | 1.06 | 1.08 | 0.917 | 1.15 | 0.925 | 0.724 | 1.03 | 0.474 | 1.03 | 0.942 | 0.937 | 0.782 | 0.949 | 1.09 | 0.75 | 0.871 | 1.03
HCC-366 | 1.02 | 1.01 | 1.09 | 1.02 | 1.02 | 1.03 | 1.05 | 1.13 | 1.02 | 1 | 1.08 | 0.991 | – | 1.06 | 0.854 | 1.03 | 0.992 | 0.877 | 1.01 | 0.999 | 1.08 | 1.09 | 1.03 | 1.06
HCC-827 | 1.04 | 1.11 | 1.02 | 1.06 | 0.992 | 1.04 | 1.07 | 1.08 | 1.06 | 1 | 0.986 | 0.952 | 0.791 | 1.02 | 1.02 | 1.05 | 1.04 | 1.05 | 1.01 | 1.04 | 1.07 | 1.05 | 0.773 | 1.06
HOP-62 | 1.08 | 1 | 0.997 | 0.954 | 0.981 | 1.06 | 1.09 | 1.21 | 1.06 | 1.05 | 1.06 | 0.989 | 0.915 | 1.14 | 0.744 | 1.03 | 1.03 | 1.16 | 1.01 | 1.03 | 1.11 | 1.13 | 0.886 | 1.14
IA-LM | 0.997 | 0.894 | 0.96 | 0.862 | 0.825 | 1.02 | 0.879 | 0.916 | 1.25 | 0.883 | 0.995 | 0.813 | 1.02 | 1.01 | 0.958 | 0.937 | 0.938 | 1 | 0.972 | 0.987 | 1.05 | 0.887 | 0.805 | 1.12
LC-2-ad | 1.01 | 1.07 | 1.01 | 1.01 | 1.01 | 1.02 | 1.05 | 1.1 | 1.15 | 0.88 | 1.03 | 0.84 | 0.819 | 1.05 | 0.935 | 1.03 | 0.868 | 0.993 | 1.03 | 0.924 | 1.1 | 1.06 | 0.967 | 1.02
LCLC-97TM1 | 0.978 | 0.973 | 0.969 | 0.953 | 1.04 | 0.725 | 0.81 | 1.11 | 1.03 | 0.864 | 0.845 | 0.738 | 1.03 | 0.963 | 0.468 | 0.979 | 0.86 | 1.06 | 1.04 | 0.971 | 0.962 | 0.929 | 0.794 | 1.09
LCLC-103H | 1.06 | 1.02 | 1.01 | 0.903 | 0.997 | 1.01 | 1.01 | 1.02 | 0.952 | 0.687 | 1.04 | 0.875 | 0.805 | 1.02 | 0.993 | 1.08 | 0.98 | 0.923 | 1.01 | 0.96 | 1.01 | 1 | 0.953 | 1.05
LK-2 | 1.03 | 1.07 | 1.12 | 0.97 | 1.07 | 1.06 | 0.944 | 0.903 | 0.709 | 0.312 | 1.06 | 0.925 | 0.602 | 0.514 | 0.197 | 1.24 | 0.923 | 0.906 | 0.953 | 1.09 | 1.16 | 1.06 | 0.9 | 1.45
LOU-NH91 | 0.905 | 0.974 | 0.928 | 1.1 | 0.92 | 0.91 | 0.975 | 1.03 | 1.12 | 0.949 | 1.15 | 0.894 | 0.81 | 0.999 | 0.655 | 0.969 | 0.876 | 1.01 | 1.08 | 0.92 | 1.02 | 0.868 | 0.79 | 0.981
